Data set [1] is described as follows: Drug uptake in C57BL/6 mouse kidney at 40 mg/kg, po administered via gavage by LC-MS/MS analysis. Particulars: in vivo. In kind it is ADME, organism-based.
For the next data set, the target named is T1, Histone deacetylase 8 (Homo sapiens, UniProt Q9BY41).
T1 sequence (Q9BY41 whole entry): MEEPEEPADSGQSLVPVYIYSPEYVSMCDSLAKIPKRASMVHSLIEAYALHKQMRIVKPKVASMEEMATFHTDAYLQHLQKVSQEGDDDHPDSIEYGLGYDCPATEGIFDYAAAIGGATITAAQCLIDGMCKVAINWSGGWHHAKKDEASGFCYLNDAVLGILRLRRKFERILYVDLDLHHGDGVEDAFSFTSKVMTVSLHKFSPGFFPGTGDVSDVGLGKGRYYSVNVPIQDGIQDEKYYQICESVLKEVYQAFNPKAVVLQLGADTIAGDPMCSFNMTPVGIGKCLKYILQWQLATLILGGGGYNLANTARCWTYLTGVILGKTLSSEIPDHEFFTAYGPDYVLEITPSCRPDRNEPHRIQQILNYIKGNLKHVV
As to the kind of experiment: Inhibition of human full-length recombinant HDAC8 expressed in baculovirus infected Sf9 insect cells using fluorogenic peptide RHKAcKAc as substrate after 2 hrs.

Data set [2] has as its system Lewis lung carcinoma cell line. The experiment in a line: Cytotoxicity against mouse LL/2 cells after 72 hrs by MTT assay. In kind it is functional, cell-based.
The subject of data set [3] is Lewis lung carcinoma cell line. The experiment in a line: Potentiation of paclitaxel-induced cytotoxicity in mouse LL/2 cells assessed as combination index up to 10 uM after 72 hrs by Chou-Talalay method. In kind it is functional.
In data set [4] the test system is Lewis lung carcinoma cell line. As to the kind of experiment: Induction of apoptosis in mouse LL/2 cells assessed as viable cells at 4 uM after 24 hrs by Annexin V/propidium iodide staining-based flow cytometric analysis (reference value: 82.3%). In kind it is functional.
Data set [5] deals with Lewis lung carcinoma cell line. As to the kind of experiment: Induction of apoptosis in mouse LL/2 cells assessed as early apoptotic cells at 4 uM after 24 hrs by Annexin V/propidium iodide staining-based flow cytometric analysis (reference value: 1.8%). The format is functional.
The subject of data set [6] is Lewis lung carcinoma cell line. As to the kind of experiment: Induction of apoptosis in mouse LL/2 cells assessed as necrotic cells at 4 uM after 24 hrs by Annexin V/propidium iodide staining-based flow cytometric analysis (reference value: 7.3%). In kind it is functional.
Data set [7] relates to Lewis lung carcinoma cell line. As to the kind of experiment: Induction of apoptosis in mouse LL/2 cells assessed as viable cells at 4 uM after 24 hrs in presence of paclitaxel by Annexin V/propidium iodide staining-based flow cytometric analysis (reference value: 82.3%). In kind it is functional.
Data set [8] concerns Lewis lung carcinoma cell line. As to the kind of experiment: Induction of apoptosis in mouse LL/2 cells assessed as early apoptotic cells at 4 uM after 24 hrs in presence of paclitaxel by Annexin V/propidium iodide staining-based flow cytometric analysis (reference value: 1.8%). The format is functional.
Data set [9] concerns A549. As to the kind of experiment: Induction of apoptosis in human A549 cells assessed as viable cells at 4 uM after 24 hrs by Annexin V/propidium iodide staining-based flow cytometric analysis (reference value: 96.2%). The format is functional.
Data set [10] has as its system A549. The experiment in a line: Induction of apoptosis in human A549 cells assessed as late apoptotic cells at 4 uM after 24 hrs by Annexin V/propidium iodide staining-based flow cytometric analysis (reference value: 1.6%). In kind it is functional.
Data set [11] relates to A549. As to the kind of experiment: Induction of apoptosis in human A549 cells assessed as necrotic cells at 4 uM after 24 hrs by Annexin V/propidium iodide staining-based flow cytometric analysis (reference value: 1.1%). In kind it is functional.
Data set [12] concerns A549. As to the kind of experiment: Induction of apoptosis in human A549 cells assessed as late apoptotic cells at 4 uM after 24 hrs in presence of paclitaxel by Annexin V/propidium iodide staining-based flow cytometric analysis (reference value: 1.6%). In kind it is functional.
Data set [13] is described as follows: AUC (0 to 24 hrs) in C57BL/6 mouse plasma at 40 mg/kg, po administered via gavage by LC-MS/MS analysis. More on the design: time < 24 hr, dose 40 mg/kg, route oral. In kind it is ADME, organism-based. The settings on record: in vivo.
Data set [14] in a line: Ratio of compound AUC (0 to 24 hrs) to ACY-1215 AUC (0 to 24 hrs) in C57BL/6 mouse plasma at 40 mg/kg, po administered via gavage by LC-MS/MS analysis. The format is ADME, organism-based. Particulars: in vivo.
Data set [15] in a line: Drug uptake in C57BL/6 mouse kidney at 40 mg/kg, po administered via gavage co-administered with paclitaxel at 10 mg/kg, ip by LC-MS/MS analysis. The format is ADME, organism-based. Particulars: in vivo.
Data set [16] in a line: Drug uptake in C57BL/6 mouse plasma at 40 mg/kg, po administered via gavage co-administered with paclitaxel at 10 mg/kg, ip by LC-MS/MS analysis. In kind it is ADME, organism-based. The settings on record: in vivo.
Data set [17] can be described thus: Ratio of drug uptake in C57BL/6 mouse lung at 40 mg/kg, po administered via gavage co-administered with paclitaxel at 10 mg/kg, ip by LC-MS/MS analysis to drug uptake in C57BL/6 mouse lung at 40 mg/kg, po administered via gavage by LC-MS/MS analysis. The format is ADME, organism-based. Particulars: in vivo.
Data set [18] can be described thus: Ratio of drug uptake in C57BL/6 mouse kidney at 40 mg/kg, po administered via gavage co-administered with paclitaxel at 10 mg/kg, ip by LC-MS/MS analysis to drug uptake in C57BL/6 mouse kidney at 40 mg/kg, po administered via gavage by LC-MS/MS analysis. The settings on record: in vivo. In kind it is ADME, organism-based.
Data set [19] is described as follows: Drug metabolism in C57BL/6 mouse liver assessed as hydroxylated metabolite formation at 40 mg/kg, po administered via gavage by LC-MS/MS analysis. The format is ADME, organism-based. The settings on record: in vivo.
Data set [20] in a line: Drug metabolism in C57BL/6 mouse lung assessed as hydrolysis metabolite formation at 40 mg/kg, po administered via gavage by LC-MS/MS analysis. Particulars: in vivo. The format is ADME, organism-based.
The nature of data set [21]: Drug metabolism in C57BL/6 mouse plasma assessed as hydrolysis metabolite formation at 40 mg/kg, po administered via gavage by LC-MS/MS analysis. The format is ADME, organism-based. Particulars: in vivo.

Consider `O=C(NO)c1ccc(Cn2c(=O)n(CCc3ccccc3)c(=O)c3ccccc32)cc1`, for which the Drug uptake was 130 ng/g in [1] and 392 ng/g in data set [15]. Further, the half-maximal inhibitory concentration (IC50) on Histone deacetylase 8 came out at 309 nM; in data set [2], 7.87 µM. Further, the CI in data set [3] is recorded as <1. For the same compound, the Activity is recorded as 85.8% in data set [4]; 1.5% in [5]; 2.3% in [6]; 64.8% in data set [7]; 8.8% in data set [8]; 97.4% in the data set on A549 [9]. Besides, the results for the Activity in the data set on A549 [10], with A549 [11] and in the data set on A549 [12] were 0.7%, 0.7% and 1.3%, respectively. Besides, the AUC in [13] came out at 71 ng·h/g. Besides, in data set [14], the “Ratio AUC” value came out at 0.2. For the same compound, in data set [16], the Cp is 160 ng/mL. For the same compound, the Ratio in data set [17] is listed as 1.6; in [18], 3. The Drug metabolism result in data set [19] is “Metabolite_Notdetected”; in data set [20], “Metabolite_Detected”; in data set [21], “Metabolite_Detected”.

Values taken from ChEMBL document CHEMBL4330076, “Quinazolin-2,4-dione-Based Hydroxamic Acids as Selective Histone Deacetylase-6 Inhibitors for Treatment of Non-Small Cell Lung Cancer” (J Med Chem, 2019).
